Assay results from ChEMBL document CHEMBL1142222, “A-803467, a potent and selective Nav1.8 sodium channel blocker, attenuates neuropathic and inflammatory pain in the rat” (Proc Natl Acad Sci U S A, 2007).
Active and inactive are the calls of the source. No cut-off for these calls is given here.

Legend:
[1] = system: Rattus norvegicus; test: Analgesic activity in ip dosed rat complete Freund's adjuvant-induced mechanical hyperalgesia model assessed as paw withdrawal latency after 2 days; format: functional; settings: 48 h
[2] = molecular target: Kappa-type opioid receptor (Homo sapiens, UniProt P41145); test: Displacement of [3H]U-69593 from opioid kappa receptor
[3] = Displacement of [3H]GABA from GABA receptor
[4] = system: Rattus norvegicus; test: Analgesic activity in ip dosed rat skin incision model of post-operative pain after 2 hrs; format: functional
[5] = Displacement of [125I]TNFalpha from TNFalpha receptor
[6] = system: Rattus norvegicus; test: Analgesic activity in ip dosed rat formalin flinching inflammatory pain model; format: functional
[7] = molecular target: Transient receptor potential cation channel subfamily V member 1 (Homo sapiens, UniProt Q8NER1); test: Inhibition of TRPV1
[8] = system: DRG neuron; test: Suppression of spontaneous firing of rat DRG neurons at 0.3 uM; format: functional, cell-based
[9] = system: Rattus norvegicus; test: Analgesic activity in ip dosed rat L5/L6 spinal nerve ligation-induced neuropathic pain model; format: functional
[10] = system: Mus musculus; test: Analgesic activity in ip dosed mouse visceral pain model assessed as acetic acid induced writhing; format: functional
[11] = system: DRG neuron; test: Suppression of evoked action potential firing in rat DRG neurons at 0.1 uM; format: functional
[12] = system: Rattus norvegicus; test: Analgesic activity in rat acute thermal stimulation nociception model assessed as paw withdrawal latency at 100 mg/kg, ip; format: functional; settings: route intraperitoneal
[13] = system: Rattus norvegicus; test: Analgesic activity in ip dosed rat chronic constriction injury model of cold allodynic neuropathic pain; format: functional

Kappa-type opioid receptor, sequence (P41145 whole entry): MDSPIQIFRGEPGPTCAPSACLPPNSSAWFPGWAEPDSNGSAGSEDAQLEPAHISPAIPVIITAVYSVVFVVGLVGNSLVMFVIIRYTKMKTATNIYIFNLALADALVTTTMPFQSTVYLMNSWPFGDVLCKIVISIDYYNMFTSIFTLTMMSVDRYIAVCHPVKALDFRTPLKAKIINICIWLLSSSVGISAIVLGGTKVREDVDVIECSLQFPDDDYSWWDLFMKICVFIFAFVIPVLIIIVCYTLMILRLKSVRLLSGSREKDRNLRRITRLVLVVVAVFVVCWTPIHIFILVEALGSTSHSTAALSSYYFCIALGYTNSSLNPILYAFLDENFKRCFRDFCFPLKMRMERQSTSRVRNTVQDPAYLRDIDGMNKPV
Transient receptor potential cation channel subfamily V member 1, sequence (Q8NER1 whole entry): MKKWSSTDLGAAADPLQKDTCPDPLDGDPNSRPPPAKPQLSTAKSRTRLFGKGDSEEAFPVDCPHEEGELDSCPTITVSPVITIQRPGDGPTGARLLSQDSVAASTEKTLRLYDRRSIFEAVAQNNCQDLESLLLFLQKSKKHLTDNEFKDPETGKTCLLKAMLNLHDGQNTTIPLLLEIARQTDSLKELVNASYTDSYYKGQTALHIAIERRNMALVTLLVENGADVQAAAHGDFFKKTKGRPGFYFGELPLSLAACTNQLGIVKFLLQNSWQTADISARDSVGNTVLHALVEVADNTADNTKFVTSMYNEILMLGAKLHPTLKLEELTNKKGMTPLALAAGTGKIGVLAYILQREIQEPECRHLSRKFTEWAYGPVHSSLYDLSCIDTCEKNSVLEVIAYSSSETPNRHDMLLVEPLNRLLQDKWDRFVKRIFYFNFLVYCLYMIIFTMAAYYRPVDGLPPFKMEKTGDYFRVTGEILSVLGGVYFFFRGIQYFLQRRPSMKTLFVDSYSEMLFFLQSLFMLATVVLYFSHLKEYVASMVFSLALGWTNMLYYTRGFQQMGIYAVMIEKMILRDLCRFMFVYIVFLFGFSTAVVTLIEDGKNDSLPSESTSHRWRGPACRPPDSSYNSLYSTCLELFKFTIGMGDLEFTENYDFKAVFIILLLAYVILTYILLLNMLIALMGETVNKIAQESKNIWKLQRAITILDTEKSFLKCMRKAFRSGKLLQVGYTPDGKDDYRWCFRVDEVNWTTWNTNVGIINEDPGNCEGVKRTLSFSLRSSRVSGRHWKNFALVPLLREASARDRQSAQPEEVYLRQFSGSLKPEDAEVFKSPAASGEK

IC50 [2]: > 10 µM
IC50 [3]: > 10 µM
IC50 [5]: > 10 µM
IC50 [7]: > 10 µM
SMILES: COc1cc(NC(=O)c2ccc(-c3ccc(Cl)cc3)o2)cc(OC)c1
ED50 [1]: > 100 mg/kg
ED50 [4]: > 100 mg/kg
ED50 [6]: > 100 mg/kg
Activity [8]: Active
ED50 [9]: 47 mg/kg
ED50 [10]: > 100 mg/kg
Activity [11]: inactive
Activity [12]: 0%
ED50 [13]: 70 mg/kg
